Each compound was assayed against NK1 receptor (Homo sapiens, UniProt P25103) (assay: NK1 receptor binding: inhibition of Substance P binding, Ki from the 50% inhibition concentration). Details: average Ki for the NK1 receptor.
Text: Compounds having the formula (I) can be effective antagonists of the NK1 receptor, and of an effect of its endogenous agonist, Substance P, at the NK1 receptor site, and therefore, can be useful in treating conditions caused or aggravated by the activity of said receptor. The in vitro and in vivo NK1, NK2 and NK3 activities of the compounds having the formula (I) can be determined by various procedures known in the art, such as a test for their ability to inhibit the activity of the NK1 agonist Substance P. The percent inhibition of neurokinin agonist activity is the difference between the percent of maximum specific binding (“MSB”) and 100%. The percent of MSB is defined by the following equation, wherein “dpm” represents “disintegrations per minute”:
[formula] The concentration at which the compound produces 50% inhibition of binding is then used to determine an inhibition constant (“Ki”) using the Chang-Prusoff equation.
The activities (potencies) for the compounds of the invention are determined by measuring their Ki values. […] Even more preferred are compounds having average Ki values of from 0.01 nM to about 10 nM for the NK1 receptor. The most preferred compounds have NK1 average Ki values of from 0.01 nM to about 3 nM.

NK1 receptor, sequence (P25103 whole entry, species assumed): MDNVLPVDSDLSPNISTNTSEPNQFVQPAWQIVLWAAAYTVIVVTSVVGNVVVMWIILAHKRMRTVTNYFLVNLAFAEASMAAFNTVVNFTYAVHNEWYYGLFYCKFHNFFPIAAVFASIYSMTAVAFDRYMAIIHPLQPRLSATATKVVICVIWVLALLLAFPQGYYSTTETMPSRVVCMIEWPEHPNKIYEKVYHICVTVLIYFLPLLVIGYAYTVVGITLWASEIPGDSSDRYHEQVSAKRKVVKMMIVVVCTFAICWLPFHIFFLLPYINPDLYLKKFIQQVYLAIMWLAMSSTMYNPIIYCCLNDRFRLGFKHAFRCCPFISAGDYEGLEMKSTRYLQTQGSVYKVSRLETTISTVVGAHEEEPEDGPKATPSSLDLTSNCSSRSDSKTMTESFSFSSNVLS

Row | Ki [pM] | SMILES
1 | 100 | C[C@@H](OC[C@@]1(c2ccccc2)CC[C@H](n2cn[nH]c2=O)CN1)c1cc(C(F)(F)F)cc(C(F)(F)F)c1 [Example 109]
2 | 410 | C[C@@H](OC[C@@]1(c2ccccc2)CC[C@]2(CCCC(=O)N2)CN1)c1cc(C(F)(F)F)cc(C(F)(F)F)c1 [Example 110a]
3 | 380 | C[C@@H](OC[C@@]1(c2ccccc2)CC[C@]2(CCOC(=O)N2)CN1)c1cc(C(F)(F)F)cc(C(F)(F)F)c1 [Example 111a]

The next lines start with the compound.

Row | SMILES | Ki [pM]
4 | C[C@@H](OC[C@@]1(c2ccccc2)CC[C@]2(CN1)NC(=O)NC2=O)c1cc(C(F)(F)F)cc(C(F)(F)F)c1 [Example 43b] | 770
5 | C[C@@H](OC[C@@]1(c2ccccc2)CC[C@]2(CCC(=O)N2)CN1)c1cc(C(F)(F)F)cc(C(F)(F)F)c1 [Example 72a] | 660
6 | C[C@@H](OC[C@@]1(c2ccccc2)CC[C@@]2(CN1)COC(=O)N2)c1cc(C(F)(F)F)cc(C(F)(F)F)c1 [Example 73b] | 200

— patent US8796299B2, “NK1 antagonists” (OPKO Health, Inc., priority 2001, dated 2014)
